We go through four compounds from patent US8691761B2, “Somatostatin receptor 2 antagonists” (priority 2006, dated 2014).

Each structure is given as a SMILES string. Entries after “also recorded” stand apart in the source; their conditions may differ. Bridge positions count the residues as written; N and C are the ends. Square brackets hold non-standard residues; d marks the D form. Peptide text beside a SMILES is read from it. * marks the point of attachment. DOTA = O=C(O)CN1CCN(CC(=O)O)CCN(CC(=O)*)CCN(CC(=O)O)CC1; dPhe(4-NHCONH2) = NC(=O)Nc1ccc(C[C@@H](N)C(=O)O)cc1; Dihydroorotyl(S) = O=C1C[C@@H](C(=O)*)NC(=O)N1; Phe(4-Cl) = N[C@@H](Cc1ccc(Cl)cc1)C(=O)O; Phe(4-NH2) = Nc1ccc(C[C@H](N)C(=O)O)cc1; 2Nal = N[C@@H](Cc1ccc2ccccc2c1)C(=O)O; NMeK = CN[C@@H](CCCCN)C(=O)O

The subject of data set [1] is HEK-sst2 tumors. Nature of the data set: In vivo biodistribution of radiolabeled peptides in nude mice bearing HEK-sst2 tumors.
Protocol: (§1) The following protocol was used to determine biodistribution
(§2) Confirmation that the transfected tumors were indeed expressing solely sst2 was obtained in resected tumor samples tested in vitro with somatostatin receptor autoradiography using subtype selective ligands.
(§3) The biodistribution of was studied at 4 h or 24 h after injection. The organs of interest were collected, blotted dry, weighed, their radioactivity measured and the percentage of injected activity per gram (% IA/g) calculated.
The target in data set [2] is T7-epitope-tagged human sst2 (Homo sapiens, UniProt P30874). Nature of the data set: Quantitative assay for sst2 internalization (ELISA) in HEK-sst2 cells. The format is cell-based. The conditions noted are these: FIG. 3.
Chain of T7-epitope-tagged human sst2 (P30874 whole entry): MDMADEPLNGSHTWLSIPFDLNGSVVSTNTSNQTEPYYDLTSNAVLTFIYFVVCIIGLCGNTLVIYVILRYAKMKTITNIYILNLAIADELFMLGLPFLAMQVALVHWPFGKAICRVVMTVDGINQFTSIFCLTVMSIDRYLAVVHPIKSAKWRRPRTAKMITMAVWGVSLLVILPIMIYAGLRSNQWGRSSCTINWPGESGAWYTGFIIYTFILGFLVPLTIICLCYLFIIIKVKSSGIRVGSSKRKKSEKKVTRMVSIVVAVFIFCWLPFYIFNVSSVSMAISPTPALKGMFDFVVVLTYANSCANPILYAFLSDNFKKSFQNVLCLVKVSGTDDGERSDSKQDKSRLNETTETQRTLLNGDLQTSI
Protocol: Quantitative assay for sst2 internalization (ELISA) Receptor internalization was determined using an ELISA to quantitate T7-epitope-tagged human sst2 on the cell surface. HEK-sst2 cells were seeded on poly-D-lysine (20 μg/mL) coated 24-well plates (250,000 cells per well) in growth medium and cultured for 1 day at 37° C. and 5% CO2. […] After washing with DMEM-LH to remove unbound antibody, cells were incubated for 30 min at 37° C. and 5% CO2 either without or with the ligands added at the concentrations indicated. Incubations were terminated by placing the plates in an ice bath. Cells were then washed twice with cold PBS and fixed for 10 min at room temperature with 3% paraformaldehyde in PBS (pH 7.4). […] After 3 additional washes with PBS, antibody binding was measured by adding 0.3 mL substrate mix for horseradish peroxidase (ABTS). The OD405 was measured after an approximately 30 min incubation at room temperature. The amount of sst2 remaining at the cell surface after ligand treatment was calculated as the absorbance measured in treated cells expressed as a percentage of the absorbance in untreated cells. Nonspecific absorbance was determined in experiments in which HEK293-sst2 cells were incubated without the anti-T7 antibody. […]
For data set [3], the target named is T1, sst2 (Homo sapiens, UniProt P30874). Nature of the data set: Calcium release assay in HEK-sst2 cells (Fluo-4NW). The format is cell-based. Also on record: expressed in transfected cells; host or cells: HEK293 (HEK-sst2). The conditions noted are these: n ≧ 2.
Target sequence in this assay (P30874 whole entry): as above
The target in a further data set is T2, human sst2A receptor (Homo sapiens, UniProt P30874).
T2 construct: expressed in transfected cells; host or cells: HEK293 (HEK-sst2)
T2 sequence (P30874 whole entry): as above
Briefly: Immunofluorescence-based sst2 internalization assay in HEK-sst2 cells. The data set is classed as cell-based. The conditions noted are these: n ≧ 2. In outline: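 HEK-sst2 cells treated with vehicle, 100 nM [Tyr^3]-octreotide, octreotide plus 100-fold excess test analogue, or test analogue alone at 10 μM. Receptor internalization visualized by immunofluorescence microscopy with sst2-specific antibody R2-88.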

Data set [4] has as its system HEK-sst2 tumors. The conditions noted are these: female, athymic nude, mouse, in vivo, iv, 4 h.
Protocol: as §1, §2, §3
The nature of another data set: in vivo. The conditions noted are these: female, athymic nude, mouse, iv, total radioactivity, biodistribution.
Data set [5] concerns the target T1, sst2. The conditions noted are these: cited from earlier work.
Target sequence in this assay (P30874 whole entry, species assumed): as the sequence (P30874 whole entry) above
For another data set, the target named is sst3 (Homo sapiens, UniProt P32745). The conditions noted are these: literature value compared with own IC50; read-out: reported value at sst3 (Hocart et al.); cited from earlier work.
Chain of sst3 (P32745 whole entry, species assumed): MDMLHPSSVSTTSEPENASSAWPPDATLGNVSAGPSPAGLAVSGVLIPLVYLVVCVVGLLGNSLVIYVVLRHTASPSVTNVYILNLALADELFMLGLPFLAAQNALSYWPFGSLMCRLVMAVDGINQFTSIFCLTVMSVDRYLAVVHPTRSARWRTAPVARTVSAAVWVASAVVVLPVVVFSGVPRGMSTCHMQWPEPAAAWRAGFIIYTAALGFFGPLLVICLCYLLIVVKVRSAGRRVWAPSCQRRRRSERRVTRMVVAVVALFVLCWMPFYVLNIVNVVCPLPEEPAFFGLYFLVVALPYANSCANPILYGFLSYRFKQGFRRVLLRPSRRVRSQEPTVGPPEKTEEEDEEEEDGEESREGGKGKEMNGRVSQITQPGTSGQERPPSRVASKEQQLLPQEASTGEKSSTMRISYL
The next data set deals with T3, hSSTR2 (Homo sapiens, UniProt P30874).
T3 construct: expressed in transfected cells; host or cells: CHO-K1 or CCL39 cells
T3 sequence (P30874 whole entry): as the sequence (P30874 whole entry) above
Briefly: Receptor autoradiography, displacement of 125I-[Leu8,D-Trp22,Tyr25]-SRIF-28 from membrane pellet sections. The conditions noted are these: Table 3; mean ± SEM when N ≧ 3; read-out: sst2 binding affinity (IC50). The format is binding.

The target of another data set is T4, hSSTR3 (Homo sapiens, UniProt P32745).
T4 construct: expressed in transfected cells; host or cells: CHO-K1 or CCL39 cells
T4 sequence (P32745 whole entry): as the sequence (P32745 whole entry, species assumed) above
Described as above. To be noted: Table 3; mean ± SEM when N ≧ 3; read-out: sst3 binding affinity (IC50). The format is binding.

A further data set concerns the target T5, hSSTR4 (Homo sapiens, UniProt P31391).
T5 construct: expressed in transfected cells; host or cells: CHO-K1 or CCL39 cells
The description is as above. The format is binding. To be noted: Table 3; mean ± SEM when N ≧ 3; read-out: sst4 binding affinity (IC50).

Another data set addresses T6, hSSTR1 (Homo sapiens, UniProt P30872).
T6 construct: expressed in transfected cells; host or cells: CHO-K1 or CCL39 cells
Described as above. To be noted: Table 3; mean ± SEM when N ≧ 3; read-out: sst1 binding affinity (IC50). The format is binding.

T5 sequence (P31391 whole entry): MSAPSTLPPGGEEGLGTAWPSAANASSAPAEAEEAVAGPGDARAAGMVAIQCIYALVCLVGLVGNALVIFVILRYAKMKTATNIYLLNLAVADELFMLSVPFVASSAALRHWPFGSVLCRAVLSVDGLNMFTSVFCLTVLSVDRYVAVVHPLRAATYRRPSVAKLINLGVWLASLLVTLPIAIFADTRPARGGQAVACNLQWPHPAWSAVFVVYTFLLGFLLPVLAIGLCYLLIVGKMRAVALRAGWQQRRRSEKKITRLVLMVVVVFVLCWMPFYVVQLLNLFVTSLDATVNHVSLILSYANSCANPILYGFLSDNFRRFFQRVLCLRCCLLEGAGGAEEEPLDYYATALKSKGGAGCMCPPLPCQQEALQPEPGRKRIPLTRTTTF
T6 sequence (P30872 whole entry): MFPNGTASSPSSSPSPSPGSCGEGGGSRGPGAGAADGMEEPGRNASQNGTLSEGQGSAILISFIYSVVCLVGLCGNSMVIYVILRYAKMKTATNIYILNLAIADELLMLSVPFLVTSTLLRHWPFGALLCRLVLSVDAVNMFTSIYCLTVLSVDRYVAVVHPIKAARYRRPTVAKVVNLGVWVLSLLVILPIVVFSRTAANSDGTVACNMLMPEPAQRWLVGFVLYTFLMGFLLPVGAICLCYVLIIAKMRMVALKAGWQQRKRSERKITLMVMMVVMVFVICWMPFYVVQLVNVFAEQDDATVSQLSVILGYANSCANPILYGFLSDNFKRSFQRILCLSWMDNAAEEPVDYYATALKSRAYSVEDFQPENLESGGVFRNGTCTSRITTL

On to `C[C@@H](O)[C@@H]1NC(=O)[C@H](CCCCN)NC(=O)[C@@H](Cc2c[nH]c3ccccc23)NC(=O)[C@H](Cc2ccc(O)c(I)c2)NC(=O)[C@H](NC(=O)[C@H](Cc2ccc([N+](=O)[O-])cc2)NC(=O)CN2CCN(CC(=O)O)CCN(CC(=O)O)CCN(CC(=O)O)CC2)CSSC[C@@H](C(=O)N[C@H](Cc2ccc(O)cc2)C(N)=O)NC1=O` [Peptide No. 32, DOTA-pNO2Phe-c[DCys-ITyr-DTrp-Lys-Thr-Cys]-DTyr-NH2], for which the “tumor to kidney ratio (in words)” value in the data set on HEK-sst2 tumors [1] (mouse, in vivo) is reported as “excellent tumor to kidney ratio”. For the same compound, the “function in the ELISA internalization assay” value in [2] is “antagonistic properties”. The “Calcium release tested in vitro in HEK-sst2 cells (function)” value (“Calcium release tested in vitro” below) at sst2 [3] is “Antagonist”. Besides, on human sst2A receptor, the “sst2-internalization tested in vitro in HEK-sst2 cells (function)” value (“sst2-internalization tested in vitro” for short) was “antagonistic property; also recorded: Antagonist”.
For orientation: tissue uptake means the percentage of the injected dose found per gram of tissue. Turning to `C[C@@H](O)[C@@H]1NC(=O)[C@H](CCCCN)NC(=O)[C@@H](Cc2ccc(NC(N)=O)cc2)NC(=O)[C@H](Cc2ccc(NC(=O)[C@@H]3CC(=O)NC(=O)N3)cc2)NC(=O)[C@H](NC(=O)[C@H](Cc2ccc(Cl)cc2)NC(=O)CN2CCN(CC(=O)O)CCN(CC(=O)O)CCN(CC(=O)O)CC2)CSSC[C@@H](C(N)=O)NC1=O` [^111In-labelled Peptide No. 33, metal not drawn] ({DOTA}-[Phe(4-Cl)][dC][Phe(4-NH2)](Dihydroorotyl(S))[dPhe(4-NHCONH2)]KTC-NH2; disulfide 2-7), in the data set with HEK-sst2 tumors [1] (1000- or 2000-fold excess of unlabelled compound), the “effect of excess unlabelled compound on binding in vivo” value is “inhibited binding”. In the data set with HEK-sst2 tumors [4], the “biodistribution, intestine” value was 0.09 % IA/g. Moreover, the “biodistribution, kidney” value in the data set with HEK-sst2 tumors [4] was found to be 10.3 % IA/g. Moreover, the “biodistribution, lung” value with HEK-sst2 tumors [4] was determined as 0.21 % IA/g. The “biodistribution, spleen” value in the data set on HEK-sst2 tumors [4] is on record as 0.2 % IA/g. For the same compound, the “biodistribution, stomach” value in the data set on HEK-sst2 tumors [4] is given as 0.12 % IA/g. Besides, the tissue uptake at 4 h turned out to be 0.23 %ID/g in “in vivo” (adrenal); 0.12 %ID/g in “in vivo” (blood); 0.04 %ID/g in the data set “in vivo” (bone); 0.05 %ID/g in the data set “in vivo” (heart); 0.32 %ID/g in the data set “in vivo” (liver); 0.02 %ID/g in “in vivo” (muscle). For the same compound, the tissue uptake at 4 h in the data set “in vivo” (pancreas) was 0.05 %ID/g; in the data set “in vivo” (pituitary), 0.14 %ID/g; in “in vivo” (sst2 tumor) it was 0.22 %ID/g; in the data set “in vivo” (sst3 tumor) it was 0.14 %ID/g.
As for `C[C@@H](O)[C@@H]1NC(=O)[C@H](CCCCN)NC(=O)[C@@H](Cc2c[nH]c3ccccc23)NC(=O)[C@H](Cc2ccc(O)cc2)NC(=O)[C@H](NC(=O)[C@@H](N)Cc2ccc(Cl)cc2)CSSC[C@@H](C(=O)N[C@@H](Cc2ccc3ccccc3c2)C(N)=O)NC1=O` [compound 7, H2N-Cpa-c[DCys-Tyr-DTrp-Lys-Thr-Cys]-2Nal-NH2, reference compound] (H-[Phe(4-Cl)][dC]Y[dW]KTC[2Nal]-NH2; disulfide 2-7), the IC50 was 26 nM at sst2 [5] (literature value compared with own IC50, read-out: reported value at sst2 (Hocart et al.)) and 93 nM at sst3. Also, at sst2 [3], the “Calcium release tested in vitro” value is listed as “Antagonist”. The “sst2-internalization tested in vitro” value on human sst2A receptor is given as “Antagonist”.
`C[C@@H](O)[C@@H]1NC(=O)[C@H](CCCCN)N(C)C(=O)[C@@H](Cc2c[nH]c3ccccc23)NC(=O)[C@H](Cc2ccc(O)cc2)NC(=O)[C@H](NC(=O)[C@@H](N)Cc2ccc(Cl)cc2)CSSC[C@@H](C(=O)N[C@@H](Cc2ccc3ccccc3c2)C(N)=O)NC1=O` [compound 8, H2N-Cpa-c[DCys-Tyr-DTrp-NMeLys-Thr-Cys]-2Nal-NH2, reference compound] (H-[Phe(4-Cl)][dC]Y[dW][NMeK]TC[2Nal]-NH2; disulfide 2-7): the IC50 on hSSTR2 was 10 ± 3.5 nM; at hSSTR3 it was 61 ± 14 nM; at hSSTR4, 715 ± 137 nM; at hSSTR1, more than 1000 nM. In addition, the “increase of binding affinity at sst2 versus 7 in Hocart et al. assay” value on sst2 [5] is 5 fold. Further, at sst2 [3], the “Calcium release tested in vitro” value is reported as “Antagonist”. The “sst2-internalization tested in vitro” value on human sst2A receptor is reported as “Antagonist”.
